Measurements from PubChem BioAssay AID256 (DTP/NCI, 2004).
Values joined by “and” are separate entries in the source; they are usually repeats but may differ in a detail not shown here. Identical values can stand only once. Inconclusive results and toxic doses are left out.

Tested on: CD2F1 mice, L1210 leukemia ip, survival T/C
Assay: NCI In Vivo Anticancer Drug Screen. Data for tumor model L1210 Leukemia (intraperitoneal) in CD2F1 (CDF1) mice
Conditions: endpoint: mean survival time, higher = longer survival
Procedure, shortened: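 Vehicle-treated tumor-bearing mice served as controls (C) for compound-treated mice (T). Reported figure is T divided by C.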

[1] = dose: 20.0 mg/kg/injection, schedule: Q01DX001 (ip), vehicle: saline
[2] = dose: 100.0 mg/kg/injection, schedule: Q01DX001 (ip), vehicle: saline with Tween-80
[3] = dose: 100.0 mg/kg/injection, schedule: Q04DX002 (ip), vehicle: saline with Tween-80
[4] = dose: 100.0 mg/kg/injection, schedule: Q04DX003 (ip), vehicle: saline with Tween-80
[5] = dose: 200.0 mg/kg/injection, schedule: Q01DX001 (ip), vehicle: saline with Tween-80
[6] = dose: 200.0 mg/kg/injection, schedule: Q04DX002 (ip), vehicle: saline with Tween-80
[7] = dose: 200.0 mg/kg/injection, schedule: Q04DX003 (ip), vehicle: saline with Tween-80
[8] = dose: 400.0 mg/kg/injection, schedule: Q04DX002 (ip), vehicle: saline with Tween-80
[9] = dose: 400.0 mg/kg/injection, schedule: Q04DX003 (ip), vehicle: saline with Tween-80
[10] = dose: 100.0 mg/kg/injection, schedule: Q01DX001 (ip), vehicle: saline
[11] = dose: 200.0 mg/kg/injection, schedule: Q01DX001 (ip), vehicle: saline
[12] = dose: 25.0 mg/kg/injection, schedule: Q01DX009 (ip), vehicle: saline with Tween-80
[13] = dose: 50.0 mg/kg/injection, schedule: Q01DX009 (ip), vehicle: saline with Tween-80
[14] = dose: 100.0 mg/kg/injection, schedule: Q01DX009 (ip), vehicle: saline with Tween-80
[15] = dose: 200.0 mg/kg/injection, schedule: Q01DX009 (ip), vehicle: saline with Tween-80
[16] = dose: 400.0 mg/kg/injection, schedule: Q01DX009 (ip), vehicle: saline with Tween-80
[17] = dose: 12.5 mg/kg/injection, schedule: Q01DX009 (ip), vehicle: saline with Tween-80
[18] = dose: 400.0 mg/kg/injection, schedule: Q01DX001 (ip), vehicle: saline with Tween-80

For `COC(=O)CSC#N`, the T/C (dose: 10.0 mg/kg/injection, schedule: Q01DX001 (ip), vehicle: saline) was 111 % of control and the T/C [1] was 107 % of control.
With `O/N=C\c1cc[n+](CC[n+]2ccc(/C=N/O)cc2)cc1` the T/C (dose: 25.0 mg/kg/injection, schedule: Q04DX002 (ip), vehicle: other) was 97 % of control, the T/C (dose: 50.0 mg/kg/injection, schedule: Q04DX002 (ip), vehicle: other) was 94 % of control and the T/C (dose: 100.0 mg/kg/injection, schedule: Q04DX002 (ip), vehicle: other) was 108 % of control.
In the case of `O=C(NCCS)Nc1ccccc1`, the T/C [2] is reported as 102 % of control, the T/C [3] is reported as 104 % of control and the T/C [4] is reported as 94 % of control. The T/C [5] was 98 % of control, the T/C [6] was 96 % of control and the T/C [7] was 86 % of control and 91 % of control. For the same compound, the T/C [8] was 96 % of control and the T/C [9] was 86 % of control and 92 % of control.
For `COC(=O)c1c2ccccc2[n+](C)c2ccccc12`, the T/C (dose: 12.5 mg/kg/injection, schedule: Q01DX009 (ip), vehicle: saline) was 95 % of control, the T/C (dose: 25.0 mg/kg/injection, schedule: Q01DX009 (ip), vehicle: saline) was 95 % of control and the T/C (dose: 50.0 mg/kg/injection, schedule: Q01DX009 (ip), vehicle: saline) was 100 % of control. For the same compound, the T/C [10] was 91 % of control and the T/C [11] was 96 % of control.
For `CC(C)(CCC(=O)c1ccccc1)C(=O)O`, the T/C [4] was 90 % of control, the T/C [7] was 94 % of control and the T/C [9] was 87 % of control.
In the case of `O=[N+]([O-])c1ccc(/C=C/C=C/C2(CCl)OCCO2)cc1`, the T/C (dose: 100.0 mg/kg/injection, schedule: Q01DX001 (ip), vehicle: Klucel (hydroxypropylcellulose) (HPC)) is reported as 100 % of control, the T/C (dose: 200.0 mg/kg/injection, schedule: Q01DX001 (ip), vehicle: Klucel (hydroxypropylcellulose) (HPC)) is reported as 112 % of control and the T/C (dose: 400.0 mg/kg/injection, schedule: Q01DX001 (ip), vehicle: Klucel (hydroxypropylcellulose) (HPC)) is reported as 100 % of control.
`C=CCNC(=O)/C=C/C(=O)NCC=C` was tested, and the T/C [12] was 97 % of control, the T/C [13] was 97 % of control and the T/C [14] was 101 % of control. For the same compound, the T/C [4] was 97 % of control.
With `OCc1c(Cl)c(Cl)c(CO)c(Cl)c1Cl` the T/C [14] was 95 % of control, the T/C [4] was 102 % of control and the T/C [15] was 90 % of control. For the same compound, the T/C [7] was 100 % of control, the T/C [16] was 94 % of control and the T/C [9] was 96 % of control.
In the case of `O=c1[nH]cc(F)c(=O)n1C1OC(CO)C(O)C1O` (stereo not drawn), the T/C (dose: 1.0 mg/kg/injection, schedule: Q01DX009 (ip), vehicle: saline) is reported as 169 % of control, the T/C (dose: 2.0 mg/kg/injection, schedule: Q01DX005 (ip), vehicle: saline) is reported as 160 % of control and the T/C (dose: 2.0 mg/kg/injection, schedule: Q01DX009 (ip), vehicle: saline) is reported as 160 % of control. For the same compound, the T/C (dose: 4.0 mg/kg/injection, schedule: Q01DX005 (ip), vehicle: saline) was 207 % of control, the T/C (dose: 4.0 mg/kg/injection, schedule: Q01DX009 (ip), vehicle: saline) was 124 % of control and the T/C (dose: 5.0 mg/kg/injection, schedule: Q03HX024 (ip), vehicle: saline) was 155 % of control. The T/C (dose: 5.0 mg/kg/injection, schedule: Q04DX003 (ip), vehicle: saline) was 163 % of control, the T/C (dose: 10.0 mg/kg/injection, schedule: Q03HX024 (ip), vehicle: saline) was 231 % of control and the T/C (dose: 10.0 mg/kg/injection, schedule: Q04DX003 (ip), vehicle: saline) was 189 % of control. The T/C [1] was 151 % of control, the T/C (dose: 20.0 mg/kg/injection, schedule: Q03HX024 (ip), vehicle: saline) was 151 % of control and the T/C (dose: 20.0 mg/kg/injection, schedule: Q04DX003 (ip), vehicle: saline) was 184 % of control.
For `COC(COS(=O)(=O)c1ccc(Br)cc1)(c1ccccc1)c1ccccc1`, the T/C [17] was 95 % of control, the T/C [12] was 88 % of control and the T/C [13] was 88 % of control.
`NC(=O)C(CSCc1ccccc1)NC(=O)OCc1ccccc1` (stereo not drawn) was tested, and the T/C [14] was 91 % of control, the T/C [15] was 88 % of control and the T/C [16] was 91 % of control.
In the case of `CNC(=S)Nc1ccc(C(=O)NC(C)C)cc1`, the T/C (dose: 50.0 mg/kg/injection, schedule: Q01DX009 (ip), vehicle: other) is reported as 100 % of control, the T/C (dose: 100.0 mg/kg/injection, schedule: Q01DX009 (ip), vehicle: other) is reported as 95 % of control and the T/C (dose: 200.0 mg/kg/injection, schedule: Q01DX009 (ip), vehicle: other) is reported as 97 % of control.
`C[N+]1(C)CCC(=O)CC1` was tested, and the T/C [14] was 101 % of control.
`O=C(NC(COCc1ccccc1)C(=O)O)OCc1ccccc1` (stereo not drawn) was tested, and the T/C [4] was 88 % of control, the T/C [7] was 92 % of control and the T/C [9] was 100 % of control.
With `N#Cc1ncn(C2OC(CO)C(O)C2O)c1N` (stereo not drawn) the T/C [3] was 102 % of control, the T/C [6] was 105 % of control and the T/C [8] was 109 % of control.
`c1cc2[nH]c3ccncc3c2cn1` was tested, and the T/C (dose: 50.0 mg/kg/injection, schedule: Q01DX009 (ip), vehicle: saline sonified) was 98 % of control and the T/C (dose: 100.0 mg/kg/injection, schedule: Q01DX009 (ip), vehicle: saline sonified) was 101 % of control.
In the case of `CC1(C)C(=O)CCC2(C)C(OC(=O)c3ccc(C(=O)O)cc3)CCCC12` (stereo not drawn), the T/C [4] is reported as 96 % of control, the T/C [7] is reported as 93 % of control and the T/C [9] is reported as 93 % of control.
`CCCCCCCCSC1=C(Cl)C(=O)C(OC)=C(OC)C1=O` was tested, and the T/C (dose: 1.5 mg/kg/injection, schedule: Q01DX009 (ip), vehicle: saline with Tween-80) was 95 % of control, the T/C (dose: 3.0 mg/kg/injection, schedule: Q01DX009 (ip), vehicle: saline with Tween-80) was 98 % of control and the T/C (dose: 3.13 mg/kg/injection, schedule: Q01DX009 (ip), vehicle: saline with Tween-80) was 94 % of control. The T/C (dose: 6.25 mg/kg/injection, schedule: Q01DX009 (ip), vehicle: saline with Tween-80) was 89 % of control and 98 % of control, the T/C [17] was 96 % of control and 104 % of control and the T/C [12] was 96 % of control and 102 % of control.
For `O=C(OC1=CCc2ccccc21)c1ccc([N+](=O)[O-])cc1`, the T/C (dose: 50.0 mg/kg/injection, schedule: Q01DX001 (ip), vehicle: saline with Tween-80) was 101 % of control, the T/C [2] was 96 % of control and 97 % of control and the T/C [5] was 121 % of control and 96 % of control. The T/C [18] was 95 % of control and 97 % of control.
With `CN(C=O)c1cc2c3c(c1)CCCN3CCC2` the T/C [13] was 100 % of control, the T/C [2] was 105 % of control and the T/C [5] was 104 % of control.
In the case of `C1=CCC2C3C=CC(CC3)C2C1` (stereo not drawn), the T/C (dose: 75.0 mg/kg/injection, schedule: Q01DX001 (ip), vehicle: saline) is reported as 86 % of control, the T/C (dose: 150.0 mg/kg/injection, schedule: Q01DX001 (ip), vehicle: saline) is reported as 95 % of control and the T/C (dose: 300.0 mg/kg/injection, schedule: Q01DX001 (ip), vehicle: saline) is reported as 97 % of control.
`O=C(c1ccc(-c2ccccc2)cc1)c1no[n+]([O-])c1C(=O)c1ccc(-c2ccccc2)cc1` was tested, and the T/C [14] was 96 % of control, the T/C [4] was 86 % of control and the T/C [15] was 93 % of control. For the same compound, the T/C [7] was 98 % of control and the T/C [9] was 88 % of control.
With `CN(C)Cc1cc(C(C)(C)C)cc(C2CCCCC2)c1O` the T/C [4] was 100 % of control, the T/C [7] was 100 % of control and the T/C [9] was 103 % of control.
In the case of `O=C1C2CCN(CC2)C1COc1cccc2ccccc12` (stereo not drawn), the T/C [2] is reported as 106 % of control, the T/C [5] is reported as 95 % of control and the T/C [18] is reported as 102 % of control.
In the case of `O=C(Nc1ccccc1)OC1CCCCC1`, the T/C [4] is reported as 101 % of control, the T/C [7] is reported as 100 % of control and the T/C [9] is reported as 97 % of control.
For `Nc1cccc(OCC(O)CN2CCN(c3ccccc3)CC2)c1` (stereo not drawn), the T/C (dose: 50.0 mg/kg/injection, schedule: Q04DX002 (ip), vehicle: saline with Tween-80) was 93 % of control, the T/C [3] was 89 % of control and 94 % of control and the T/C [6] was 112 % of control.
With `CCCCS(=O)C(Cl)CCC` (stereo not drawn) the T/C [4] was 97 % of control and the T/C [7] was 100 % of control.
With `COc1cc(OC)c(NC(=O)OCCOc2cc(C)c(Cl)c(C)c2)cc1Cl` the T/C [17] was 95 % of control, the T/C [12] was 95 % of control and the T/C [13] was 98 % of control. The T/C [14] was 88 % of control.
For `CC(=O)N(C)c1ccc(C)cc1C`, the T/C [14] was 93 % of control, the T/C [15] was 96 % of control and the T/C [16] was 98 % of control.
With `CCCC(=O)C(CC)C(O)(C(F)(F)F)C(F)(F)F` (stereo not drawn) the T/C (dose: 100.0 mg/kg/injection, schedule: Q04DX003 (ip), vehicle: Klucel (hydroxypropylcellulose) (HPC)) was 95 % of control, the T/C (dose: 200.0 mg/kg/injection, schedule: Q04DX003 (ip), vehicle: Klucel (hydroxypropylcellulose) (HPC)) was 108 % of control and the T/C (dose: 400.0 mg/kg/injection, schedule: Q04DX003 (ip), vehicle: Klucel (hydroxypropylcellulose) (HPC)) was 86 % of control.
For `O=C(NO)c1cc(Br)cc(Br)c1O`, the T/C [3] was 96 % of control, the T/C [6] was 92 % of control and the T/C [8] was 103 % of control.
`CC(C)(C)C(=O)/C(O)=C\c1ccccc1` was tested, and the T/C [10] was 105 % of control, the T/C [11] was 100 % of control and the T/C (dose: 400.0 mg/kg/injection, schedule: Q01DX001 (ip), vehicle: saline) was 98 % of control.
